Tests used:
Format in all cases: cell-based
CD (cathepsin D) [1] = experiment: Western blot analysis of CD level, MCF7
Description: (§1) The breast cancer cell line (MCF7) of Section 1-1, taken 4 days after irradiation exposure was applied to the cells, was washed with PBS, and the cell sample was subjected to protein extraction using a cell lysis buffer (50 mM Tri-HCl, 1% NP-40, 0.25% sodium deoxycholate, 150 mM NaCl, 1 mM PMSF, 50 mM NaF, 0.2 mM Na3VO4, 10 g/mL aprotinin, and 2 g/mL leupeptin). The extracted protein was centrifuged at 11,000 rpm for 10 min. The supernatant was collected and subjected to quantitative analysis using Bradford protein assay (Bradford, M., Anal. Biochem. 72:248-254 (1976)). 20 μg of the protein was added to 2× SDS loading buffer (60 mm Tris-Cl (pH 6.8), 25% glycerol, 2% SDS, 14.4 mM mercaptoethanol, and 0.1% bromophenol blue), and the mixture was heated at 95 for 5 min and subjected to electrophoresis on 8% SDS polyacrylamide gel at 80V for 2 hours. After the electrophoresis was complete, the separated protein was transferred to a nitrocellulose membrane (Whatman). The protein-transferred membrane was placed in a PBS solution containing 5% nonfat dry milk, and allowed to stand at room temperature for 1 hour to be blocked. Primary antibodies diluted to 1:1000 were added thereto, followed by reaction at 4 for 16 hours. The primary antibodies were polyclonal anti-eEF1A1 antibodies (Abcam, Mass., USA, Cat # ab37969 ) and anti-CD antibodies (Santa Cruz Biotechnology, Calif., USA, Cat # SC-6494 ). The secondary antibodies were horseradish peroxidase-conjugated anti-rabbit antibodies (GE healthcare, Backinghanshire, UK, Cat # NA934V). In addition, an enhanced chemiluminescence (ECL) reagent (Amersham Biosciences, Piscataway, N.J.) was used for confirmation of the reaction. Actin was used as an internal positive control, and primary antibodies were anti-actin antibodies (Santa Cruz Biotechnology, Calif., USA, Cat # SC-1616).
(§2) The signal intensity was scanned with HP Scanjet 2400 (Hewlett-Packard Company, Palo Alto, Calif., USA) and analyzed with ImageJ Program (http://rsb.info.nih.gov/ij/).
(§3) The procedure was performed in the same manner as in Section 1-6 of Example 1, except that the cell line with treatment of doxorubicin at a high dose and the cell line with treatment of doxorubicin at a low dose, each of which prepared in Section 4-1, were used. In order to confirm the occurrence of apoptosis, a level of poly(ADP-ribose) polymerase (PARP) serving as an apoptosis biomarker was detected according to Western blot analysis as in Section 1-6 of Example 1, except that polyclonal anti-PARP antibodies (Cell Signaling Technology, Mass., USA, Cat #9541) were used as primary antibodies.
(§4) The procedure was performed in the same manner as in Section 1-6 of Example 1, except that the cell line prepared in Section 6-1 was used.
(§5) P-pRb and CDK2 were used as markers of G1/S phase transition arrest. Protein levels were confirmed by Western blot analysis in the same manner as in Section 1-6 of Example 1, except that primary antibodies directed against P-pRb were Phosphoro-pRb antibodies (Cell Signaling Technology, Danvers, Mass., Cat #9308), and primary antibodies directed against CDK2 were anti-CDK2 antibodies (Santa Cruze Biotechnology, Calif., USA, Cat #SC-163).
(§6) The procedure was performed in the same manner as in Section 1-6 of Example 1, except that the cell line prepared in Section 8-1 was used. In order to detect changes in levels of LC3-II which is an autophagy biomarker, anti-LC3-II antibodies (Sigma, Mo., USA, Cat #L8919) were used as primary antibodies directed against LC3-II.

CDK2 = experiment: Western blot analysis of CDK2 (G1/S arrest marker), MCF7; settings: MCF7, double thymidine treatment (15 h, 0.5 mg/mL, 8 h interval), arrested
Description: as §1, with “The primary antibodies were polyclonal anti-eEF1A1 antibodies (Abcam, Mass., USA, Cat # ab37969 ) and anti-CD antibodies (Santa Cruz Biotechnology, Calif., USA, Cat # SC-6494 ). The secondary antibodies were horseradish peroxidase-conjugated anti-rabbit antibodies (GE healthcare, Backinghanshire, UK, Cat # NA934V). In addition, an enhanced chemiluminescence (ECL) reagent (Amersham Biosciences, Piscataway, N.J.) was used for confirmation of the reaction. Actin was used as an internal positive control, and primary antibodies were anti-actin antibodies (Santa Cruz Biotechnology, Calif., USA, Cat # SC-1616).” left out

[2] = tested on: eEF1A1 (eukaryotic elongation factor 1 alpha 1); experiment: Western blot analysis of eEF1A1 level, MCF7
Description: as §1, §2, §3, §4, §5, §6

[3] = tested on: P-pRb (phosphorylated retinoblastoma); experiment: Western blot analysis of P-pRb (G1/S arrest marker), MCF7; settings: MCF7, double thymidine treatment (15 h, 0.5 mg/mL, 8 h interval), arrested
Description: as §1, with “The primary antibodies were polyclonal anti-eEF1A1 antibodies (Abcam, Mass., USA, Cat # ab37969 ) and anti-CD antibodies (Santa Cruz Biotechnology, Calif., USA, Cat # SC-6494 ). The secondary antibodies were horseradish peroxidase-conjugated anti-rabbit antibodies (GE healthcare, Backinghanshire, UK, Cat # NA934V). In addition, an enhanced chemiluminescence (ECL) reagent (Amersham Biosciences, Piscataway, N.J.) was used for confirmation of the reaction. Actin was used as an internal positive control, and primary antibodies were anti-actin antibodies (Santa Cruz Biotechnology, Calif., USA, Cat # SC-1616).” left out

[4] = tested on: breast cancer cell line (MCF7); experiment: Senescence-associated β-galactosidase activity staining, MCF7
Description: The cells were washed twice with PBS and fixed with 3% formaldehyde at room temperature for 3 to 5 min. The fixed cells were washed once again with PBS, and 5 mL of a β-galactosidase activity staining solution (1 mg/mL X-Gal, 40 mM citric acid/sodium phosphate (pH 6.0), 5 mM potassium ferrocyanide, 5 mM potassium ferricyanide, 150 mM sodium chloride, and 2 mM magnesium chloride) was added thereto, followed by reaction in an incubator at 37 for 12 to 16 hours. During the reaction, the cells were cultured under light-shielding conditions by wrapping of the culture dish in silver foil.

[5] = tested on: breast cancer cell line (MCF7); experiment: Microscopic examination of cell morphology, MCF7; settings: for cell morphology: time course 0-96 hours
Description: In order to confirm premature senescence, characteristic morphological changes of cells in the control group and the breast cancer cell line 4 days after irradiation exposure thereof, each of which prepared in Section 1-1, were examined under a microscope (ECLIPSE TE300, Nikon).
In order to ascertain doxorubicin-induced senescence or apoptosis of a tumor cell line, the procedure was carried out in the same manner as in Section 1-2 of Example 1, except that the experiment was conducted according to a time-course schedule (0, 16, 24, 48, and 96 hours) using the cell line of Section 4-1.
Morphological changes of cells in the control group and the tamoxifen-treated group of Section 8-1 were examined under a microscope (ECLIPSE TE300, Nikon).

[6] = tested on: eEF1A1 (eukaryotic elongation factor 1 alpha 1); experiment: Western blot analysis of eEF1A1 level, H460
Description: (§7) The breast cancer cell line (MCF7) of Section 1-1, taken 4 days after irradiation exposure was applied to the cells, was washed with PBS, and the cell sample was subjected to protein extraction using a cell lysis buffer (50 mM Tri-HCl, 1% NP-40, 0.25% sodium deoxycholate, 150 mM NaCl, 1 mM PMSF, 50 mM NaF, 0.2 mM Na3VO4, 10 g/mL aprotinin, and 2 g/mL leupeptin). The extracted protein was centrifuged at 11,000 rpm for 10 min. The supernatant was collected and subjected to quantitative analysis using Bradford protein assay (Bradford, M., Anal. Biochem. 72:248-254 (1976)). […]
as §3, with “antibodies. […]” for “antibodies.”

[7] = tested on: poly(ADP-ribose) polymerase (PARP); experiment: Western blot analysis of PARP cleavage (apoptosis biomarker), MCF7; settings: MCF7, high dose (10 μg/mL)
Description: as §7, §3

[8] = tested on: lung cancer cell line H460; experiment: Microscopic examination of cell morphology, H460; settings: 96 hours
Description: In order to ascertain doxorubicin-induced senescence or apoptosis of a tumor cell line, the procedure was carried out in the same manner as in Section 1-2 of Example 1, except that the experiment was conducted 96 hours after treatment of doxorubicin on the cell line of Section 5-1.

CD (cathepsin D) [9] = experiment: Western blot analysis of CD level, H460
Description: as §7
as §3, with “antibodies. […]” for “antibodies.”

LC3-II = experiment: Western blot analysis of LC3-II (autophagy biomarker), MCF7; settings: MCF7, tamoxifen 10 μmol/L for 2 days
Description: as §1, with “The primary antibodies were polyclonal anti-eEF1A1 antibodies (Abcam, Mass., USA, Cat # ab37969 ) and anti-CD antibodies (Santa Cruz Biotechnology, Calif., USA, Cat # SC-6494 ). The secondary antibodies were horseradish peroxidase-conjugated anti-rabbit antibodies (GE healthcare, Backinghanshire, UK, Cat # NA934V). In addition, an enhanced chemiluminescence (ECL) reagent (Amersham Biosciences, Piscataway, N.J.) was used for confirmation of the reaction. Actin was used as an internal positive control, and primary antibodies were anti-actin antibodies (Santa Cruz Biotechnology, Calif., USA, Cat # SC-1616).” left out

[10] = MCF7, double thymidine block, arrested at G1/S
[11] = MCF7, released from DTB, additional 48 h
[12] = MCF7, camptothecin 40 nM, etoposide 30 μM
[13] = MCF7, camptothecin 40 nM, etoposide 30 μM, control group (Con)=1
[14] = MCF7, Day 4, Day 0=1, ImageJ scanning, dose not restated (senescence, low dose implied)
[15] = MCF7, high dose (10 μg/mL), apoptotic conditions
[16] = MCF7, low-dose doxorubicin (50 ng/mL)
[17] = H460, high-dose doxorubicin (10 μg/mL), apoptosis
[18] = H460, low-dose doxorubicin (50 ng/mL)
[19] = MCF7, tamoxifen 10 μmol/L for 2 days, autophagy

Cc1cn([C@H]2C[C@H](O)[C@@H](CO)O2)c(=O)[nH]c1=O [DTB, thymidine]
protein level of CD (Western blot) (CD (cathepsin D) [1]; [10]): No significant alteration
CD level (Western blot) (CD (cathepsin D) [1]; [11]): did not exhibit any alteration
CDK2 level (Western blot) (CDK2): accumulation
protein level of eEF1A1 (Western blot) [2, 10]: No significant alteration
eEF1A1 level (Western blot) [2, 11]: did not exhibit any alteration
phosphorylated pRb level (Western blot) [3]: decrease

CC[C@@]1(O)C(=O)OCc2c1cc1n(c2=O)Cc2cc3ccccc3nc2-1 [camptothecin]
level of CD (Western blot) (CD (cathepsin D) [1]; [12]): increases
CD band signal intensity, relative (CD (cathepsin D) [1]; [13]): 7.46
senescence-associated β-galactosidase activity staining ([4]; MCF7, camptothecin 40 nM, etoposide 30 μM, versus control group): exhibited characteristics of premature senescence
level of eEF1A1 (Western blot) [2, 12]: decreases
eEF1A1 band signal intensity, relative [2, 13]: 0.73

COc1cccc2c1C(=O)c1c(O)c3c(c(O)c1C2=O)C[C@@](O)(C(=O)CO)C[C@@H]3O[C@H]1C[C@H](N)[C@H](O)[C@H](C)O1 [doxorubicin]
cell morphology ([5]; MCF7, high dose (10 μg/mL)): apoptosis-specific morphological changes
cell morphology ([5]; MCF7, low dose (50 ng/mL)): senescence-specific morphological changes
CD band signal intensity, relative (CD (cathepsin D) [1]; [14]): 2.45
protein level of CD (Western blot) (CD (cathepsin D) [1]; [15]): gradually decreased
level of CD (Western blot) (CD (cathepsin D) [1]; [16]): increases
level of eEF1A1 (Western blot) [6, 17]: no changes
level of eEF1A1 (Western blot) [6, 18]: decreases
SA-β-gal staining ([4]; MCF7, 4 days after treatment of doxorubicin (50 ng/mL)): positive SA-β-gal staining
PARP cleavage (apoptotic marker) [7]: induced
eEF1A1 band signal intensity, relative [2, 14]: 0.53
protein level of eEF1A1 (Western blot) [2, 15]: remained unaltered
level of eEF1A1 (Western blot) [2, 16]: decreases
cell morphology ([8]; H460, high dose (10 μg/mL)): apoptosis-specific morphological changes
cell morphology ([8]; H460, low dose (50 ng/mL)): senescence-specific morphological changes
level of CD (Western blot) (CD (cathepsin D) [9]; [17]): no changes
level of CD (Western blot) (CD (cathepsin D) [9]; [18]): increases

COc1cc([C@@H]2c3cc4c(cc3[C@@H](O[C@@H]3O[C@@H]5CO[C@@H](C)O[C@H]5[C@H](O)[C@H]3O)[C@H]3COC(=O)[C@H]23)OCO4)cc(OC)c1O [etoposide]
level of CD (Western blot) (CD (cathepsin D) [1]; [12]): increases
level of eEF1A1 (Western blot) [2, 12]: decreases

CC/C(=C(\c1ccccc1)c1ccc(OCCN(C)C)cc1)c1ccccc1 [tamoxifen]
cell morphology (autophagy) ([5]; MCF7, tamoxifen 10 μmol/L for 2 days): occurrence of autophagy
level of CD (Western blot) (CD (cathepsin D) [1]; [19]): decreased
level of LC3-II (Western blot) (LC3-II): increased level
level of eEF1A1 (Western blot) [2, 19]: decreased

— patent publication US20100304409A1, “METHOD FOR DETECTING PREMATURE SENESCENCE IN TUMOR CELLS AND A KIT FOR DETECTING PREMATURE SENESCENCE IN TUMOR CELLS” (KOREA INSTITUTE OF RADIOLOGICAL & MEDICAL SCIENCES, priority 2009, published 2010)
